Data set [1] is described as follows: Metal chelating activity assessed as compound-Zn2+ complex formation by UV-vis spectrophotometric analysis.
For data set [2], the system named is SH-SY5Y. The data set is described as follows: Inhibition of Fe3+-mediated ROS generation in human SH-SY5Y cells expressing APPswe mutant at 1 uM after 72 hrs by DCF-DA dye-based fluorescence spectroscopic analysis. The format is cell-based.
Data set [3] has as its system SH-SY5Y. The data set is described as follows: Antiproliferative activity against human SH-SY5Y cells at 1 uM after 24 to 72 hrs by WST1 assay. The format is cell-based. Background: Tetrazolium dyes change colour on reduction, which living cells bring about.
A short description of data set [4]: Metal chelating activity assessed as compound-Fe3+ complex formation by UV-vis spectrophotometric analysis.
Data set [5] relates to SH-SY5Y. The data set is described as follows: Neuroprotective activity against amyloid beta (1 to 42 residues) induced cell death in human SH-SY5Y cells expressing APPswe mutant at 1 uM after 48 hrs by WST1 assay. Format: functional, cell-based.
The target in data set [6] is Acetylcholinesterase (Homo sapiens) (UniProt P22303). The data set is described as follows: Inhibition of acetylcholinesterase (unknown origin) at 1 uM using acetylthiocholine chloride as substrate measured for 5 to 40 mins.
Data set [7] relates to SH-SY5Y. The data set is described as follows: Inhibition of Cu2+-mediated amyloid beta (1 to 42 residues) production in human SH-SY5Y cells expressing APPswe mutant at 1 uM after 72 hrs by ELISA based spectrophotometric analysis. Format: cell-based. A general note: In an ELISA, binding on a coated surface is turned into a signal by an enzyme label.
Data set [8] deals with SH-SY5Y. The data set is described as follows: Inhibition of Fe3+-mediated amyloid beta (1 to 42 residues) production in human SH-SY5Y cells expressing APPswe mutant at 1 uM after 72 hrs by ELISA based spectrophotometric analysis. Format: cell-based.
For data set [9], the system named is SH-SY5Y. The data set is described as follows: Inhibition of Cu2+-mediated ROS generation in human SH-SY5Y cells expressing APPswe mutant at 1 uM after 72 hrs by DCF-DA dye-based fluorescence spectroscopic analysis. Format: cell-based.
Data set [10] is described as follows: Metal chelating activity assessed as compound-Cu2+ complex formation by UV-vis spectrophotometric analysis.
In data set [11] the test system is SH-SY5Y. The data set is described as follows: Inhibition of Zn2+-mediated amyloid beta (1 to 42 residues) production in human SH-SY5Y cells expressing APPswe mutant at 1 uM after 72 hrs by ELISA based spectrophotometric analysis. The format is cell-based.

Active and inactive are the calls of the source. Unless noted, the calls are words filed in the database; no cut-off is given here.

Sequence of Acetylcholinesterase (Homo sapiens) (P22303 whole entry, the tested form may be a part): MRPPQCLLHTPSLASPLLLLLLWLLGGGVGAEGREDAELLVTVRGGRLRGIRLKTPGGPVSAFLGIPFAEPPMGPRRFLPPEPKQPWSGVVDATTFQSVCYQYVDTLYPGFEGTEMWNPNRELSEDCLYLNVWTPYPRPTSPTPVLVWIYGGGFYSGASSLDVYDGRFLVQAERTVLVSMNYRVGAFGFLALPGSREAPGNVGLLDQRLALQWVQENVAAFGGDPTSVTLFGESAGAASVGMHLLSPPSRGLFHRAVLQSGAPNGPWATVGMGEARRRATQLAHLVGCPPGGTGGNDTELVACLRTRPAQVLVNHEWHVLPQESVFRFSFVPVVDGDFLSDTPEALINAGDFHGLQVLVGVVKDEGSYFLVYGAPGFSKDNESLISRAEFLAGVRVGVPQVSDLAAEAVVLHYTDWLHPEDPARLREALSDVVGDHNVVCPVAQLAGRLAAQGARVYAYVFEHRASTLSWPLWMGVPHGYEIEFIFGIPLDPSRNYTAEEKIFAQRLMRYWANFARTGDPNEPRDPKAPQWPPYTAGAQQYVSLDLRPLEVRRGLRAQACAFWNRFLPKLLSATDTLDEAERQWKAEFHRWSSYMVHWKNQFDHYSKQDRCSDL

Turning to `CCN1/C(=C/c2c(N/N=C/c3cccc(OC)c3O)c(=O)c2=O)Sc2ccccc21`, the result (in data set [1]; in the data set with SH-SY5Y [5]) was inactive. The inhibition result (in the data set with SH-SY5Y [2]; in data set [6]; in the data set with SH-SY5Y [7]; with SH-SY5Y [8]; in the data set with SH-SY5Y [9]) was “inactive” in each case. Further, in the data set with SH-SY5Y [3], the Activity result is given as “Non-Toxic”. In addition, the outcome in data set [4] and in data set [10] was Active.
As for `CCN1/C(=C/c2c(N/N=C/c3cc(C(C)(C)C)ccc3O)c(=O)c2=O)Sc2ccccc21`, the outcome (in data set [1]; with SH-SY5Y [5]) was inactive. For the same compound, the inhibition result (with SH-SY5Y [2]; in data set [6]; in the data set on SH-SY5Y [7]; with SH-SY5Y [8]; in the data set on SH-SY5Y [9]) was “inactive” each time. In addition, in the data set with SH-SY5Y [3], the Activity entry is given as “Non-Toxic”. For the same compound, the result in data set [4] and in [10] was Active.
With `COc1ccc(Nc2c(N/N=C/c3ccc4ccccc4n3)c(=O)c2=O)cc1`, the result (in data set [1]; in the data set with SH-SY5Y [5]) was inactive. In addition, the inhibition entry (with SH-SY5Y [2]; in [6]; in the data set on SH-SY5Y [7]; in the data set on SH-SY5Y [8]; in the data set on SH-SY5Y [9]) was “inactive” throughout. For the same compound, in the data set with SH-SY5Y [3], the Activity result is on record as “Non-Toxic”. In addition, the result in data set [4] and in data set [10] was Active.
As for `C[C@H](CCC(=O)Nc1ccc(C(=O)NN=C(c2ccccn2)c2ccccn2)cc1)[C@H]1CC[C@H]2[C@@H]3[C@H](O)C[C@@H]4C[C@H](O)CC[C@]4(C)[C@H]3C[C@H](O)[C@]12C`, the result (in data set [1]; in the data set with SH-SY5Y [5]) was inactive. Moreover, the inhibition entry (in the data set on SH-SY5Y [2]; in data set [6]; in the data set with SH-SY5Y [7]; in the data set with SH-SY5Y [8]; with SH-SY5Y [9]) was “inactive” in each case. Further, the Activity result in the data set on SH-SY5Y [3] is on record as “Non-Toxic”. For the same compound, the result in [4] and in data set [10] was Active.
`COc1ccc(Nc2c(N/N=C/c3ccc(C(C)(C)C)cc3O)c(=O)c2=O)cc1`: the outcome (in data set [1]; in the data set with SH-SY5Y [5]) was inactive. In addition, the inhibition result (in the data set on SH-SY5Y [2]; in [6]; in the data set with SH-SY5Y [7]; in the data set with SH-SY5Y [8]; in the data set on SH-SY5Y [9]) was “inactive” throughout. The Activity result in the data set with SH-SY5Y [3] is on record as “Non-Toxic”. The result in data set [4] and in [10] was Active.
For the compound `Oc1c(I)cc(Cl)c2cccnc12`, the inhibition entry in the data set with SH-SY5Y [7], with SH-SY5Y [8] and in the data set on SH-SY5Y [11] was “Active” throughout.
For the compound `COc1ccc(Nc2c(N/N=C/c3cccc(OC)c3O)c(=O)c2=O)cc1`, the outcome (in data set [1]; in the data set with SH-SY5Y [5]) was inactive. In addition, the inhibition entry (in the data set on SH-SY5Y [2]; in [6]; with SH-SY5Y [7]; in the data set on SH-SY5Y [8]; in the data set on SH-SY5Y [9]) was “inactive” throughout. Moreover, in the data set with SH-SY5Y [3], the Activity entry is “Non-Toxic”. Besides, the result in data set [4] and in data set [10] was Active.

The values above are taken from ChEMBL document CHEMBL4196074, “Metallomics for Alzheimer's disease treatment: Use of new generation of chelators combining metal-cation binding and transport properties” (Eur J Med Chem, 2018).
